Where two headings read alike, the source gives them in different places.
Legend:
Type in all cases: cell-based
JR251 = JR251 IC50 (Table v)
RBL-2H3 cells = test: Fluorescence-based assay of store-operated calcium entry in RBL-2H3 cells; settings: Rattus norvegicus
Method: B. Fluorescence-based Assay of Store-Operated Calcium Entry in RBL-2H3 Cells.
RBL-2H3 cells are obtained from ATCC and maintained in complete medium with 10% FBS at 37° C./6% CO2.
The day prior to performing the assay, RBL-2H3 cells are plated in 50 μL of complete medium in a 384 well plate. Cells are grown at 37° C./6% CO2 overnight and grow to 50-60% confluence by the next day. On the assay day, 1.5 μM Fluo-4-AM dye (Invitrogen) in complete medium is added and incubated for 1 hour at RT. Cells are washed twice in Ca^2+-free HBSS buffer and 35 μL Ca^2|-free HBSS buffer is added to each well. 10 μL of a test compound prepared in a Ca^2+-free HBSS solution at […] of the desired concentration is added to a well and incubated for 5 minutes at RT. 10 μL of thapsigargin prepared in a Ca^2+-free HBSS solution at 5.5× of the desired concentration (5.5 uM) is added to each well and incubated for an additional 25 minutes. The initial baseline fluorescence signal is measured with a FLIPR^384 (Molecular Devices) plate reader. 5 μL of 12× calcium in HBSS (12 mM) is added and changes in cellular fluorescence arc measured with the FLIPR^384 plate reader. In each well, the change in the fluorescent signal as a function of time due to calcium entry into the cell is determined by calculating the difference between the fluorescent signal measured 7 seconds after calcium addition and the initial baseline fluorescence signal at time zero (t=0). This parameter is designated Upslope. The IC50 value is calculated as the concentration at which 50% of the Upslope is inhibited.

Orai1/STIM1 = target: T1, Orai1/STIM1 (Homo sapiens, UniProt Q96D31); test: Fluorescence-based assay of store-operated calcium entry in Orai1/STIM1 stable cells; settings: HEK-293 cells stably expressing human STIM1 and Orai1; Peak-Basal fluo-4 signal; Table iv; read-out: Orai1/STIM1 (IC50, μmol)
T1 construct: c-myc (C); expressed in transfected cells; host or cells: HEK-293 cells stably overexpressing human STIM1, stably transfected with pcDNA3.1-Orai1-cmyc
Method: A. Fluorescence-based Assay of Store-Operated Calcium Entry in Orai1/STIM1 Stable Cells.
Cells stably expressing recombinant human STIM1 and Orai1 are generated by transfecting a human Orai1 expression plasmid (pcDNA3.1-Orai1-cmyc) into HEK-293 cells stably overexpressing human ST1M1 (Roos et al. 2005 JCB 169(3): 435-445). Colonies of cells stably expressing both STIM1 and Orai1 proteins are selected and then subcloned by limiting dilution. Cells were cultured at 37° C./6% CO2 in complete medium with 10% FBS and appropriate selection markers.
The day prior to performing the assay Orai1/STIM1 stable cells are plated in 50 μL of complete medium at 90-95% confluence in a 384 well plate. Cells are grown at 37° C./6% CO2 overnight. […] The initial baseline fluorescence signal is then measured with a FLIPR^384 (Molecular Devices) plate reader. Calcium entry is initiated by adding 5 μl of 10× CaCl2 (10 mM) in HBSS, and changes in cellular fluorescence are measured with the FLIPR^384 plate reader. In each well, the magnitude of the fluorescence signal as a result of calcium entry into the cell is determined by calculating the difference between the peak fluorescence signal measured after calcium addition and the initial baseline fluorescence signal (designated Peak-Basal). […]

[1] = thapsigargin, Upslope of fluo-4 signal, Table iv, read-out: RBL-2H3 (IC50, μmol)
[2] = thapsigargin, Upslope of fluo-4 signal, Table iii, read-out: RBL-2H3 (IC50, μmol)

T1 sequence (Q96D31 whole entry): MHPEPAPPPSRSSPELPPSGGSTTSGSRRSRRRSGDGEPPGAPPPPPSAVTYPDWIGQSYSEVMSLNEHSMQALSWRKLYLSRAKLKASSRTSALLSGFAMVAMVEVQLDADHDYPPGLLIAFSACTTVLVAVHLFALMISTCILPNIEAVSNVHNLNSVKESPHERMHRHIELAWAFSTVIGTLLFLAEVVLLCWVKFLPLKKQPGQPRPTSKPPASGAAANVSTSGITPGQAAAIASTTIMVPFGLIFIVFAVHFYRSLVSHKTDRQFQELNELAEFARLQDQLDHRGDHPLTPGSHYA

`C=Cn1nc(-c2nccs2)cc1-c1ccc(NC(=O)c2c(F)cccc2F)s1` [Compound 5, (2,6-difluorophenyl)-N-[5-(3-(1,3-thiazol-2-yl)-1-vinylpyrazol-5-yl](2-thienyl)] carboxamide] showed an IC50 (JR251) of 1210 nM and an IC50 (RBL-2H3 cells; Table v, read-out: IC50 (nM) RBL) of 106 nM.
For `Cn1nc(-c2nccs2)cc1-c1ccc(NC(=O)c2c(F)cccc2F)s1` [Compound 6, (2,6-difluorophenyl)-N-[5-[1-methyl-3-(1,3-thiazol-2-yl)pyrazol-5-yl](2-thienyl)] carboxamide], the IC50 (RBL-2H3 cells; [1]) was under 600 nM.
In the case of `Cn1nc(-c2nccs2)cc1-c1ccc(NC(=O)c2ccc(F)cc2F)s1` [Compound 7, (2,4-difluorophenyl)-N-[5-[1-methyl-3-(1,3-thiazol-2-yl)pyrazol-5-yl](2-thienyl)] carboxamide], the IC50 (RBL-2H3 cells; [1]) is reported as under 600 nM.
Compound `Cn1nc(-c2nccs2)cc1-c1ccc(NC(=O)c2c(F)cc(F)cc2F)s1` [Compound 10, (2,4,6-trifluorophenyl)-N-[5-[1-methyl-3-(1,3-thiazol-2-yl)pyrazol-5-yl](2-thienyl)] carboxamide] has an IC50 (RBL-2H3 cells; [1]) of under 600 nM.
With `Cc1oc(C(F)(F)F)nc1-c1ccc(NC(=O)c2c(F)cccc2F)nc1` [Compound 14, 2,6-difluoro-N-(5-(5-methyl-2-(trifluoromethyl)oxazol-4-yl)pyridin-2-yl)benzamide] the IC50 (RBL-2H3 cells; [2]) was under 600 nM.
In the case of `CCn1nc(-c2nccs2)cc1-c1ccc(NC(=O)c2c(F)cccc2F)s1` [Compound 15], the IC50 (RBL-2H3 cells; [1]) is reported as under 600 nM.
With `Cc1ccccc1C(=O)Nc1ccc(-c2nc(C(F)(F)F)oc2C)cn1` [Compound 15] the IC50 (RBL-2H3 cells; [2]) was under 600 nM.
`CCn1nc(-c2nccs2)cc1-c1ccc(NC(=O)c2c(F)cc(F)cc2F)s1` [Compound 16] gave an IC50 (RBL-2H3 cells; [1]) of under 600 nM.
Work on `Cc1oc(C(F)(F)F)nc1-c1ccc(NC(=O)c2ccccc2F)nc1` [Compound 16] yielded an IC50 (RBL-2H3 cells; [2]) of under 600 nM.
For `Cc1oc(C(F)(F)F)nc1-c1ccc(NC(=O)c2c(F)cncc2F)nc1` [Compound 17, 3,5-difluoro-N-(5-(5-methyl-2-(trifluoromethyl)oxazol-4-yl)pyridin-2-yl)isonicotinamide], the IC50 (RBL-2H3 cells; [2]) was under 600 nM.
`Cc1oc(C(F)(F)F)nc1-c1ccc(NC(=O)c2cccc(F)c2C)nc1` [Compound 19, 3-fluoro-2-methyl-N-(5-(5-methyl-2-(trifluoromethyl)oxazol-4-yl)pyridin-2-yl)benzamide] was tested, and the IC50 (RBL-2H3 cells; [2]) was under 600 nM.
With `Cc1cccc(F)c1C(=O)Nc1ccc(-c2cc(-c3ccccc3F)nn2C)s1` [Compound 23] the IC50 (Orai1/STIM1) was 600 to 1200 nM and the IC50 (RBL-2H3 cells; [1]) was under 600 nM.
In the case of `CCc1oc(C(F)(F)F)nc1-c1ccc(NC(=O)c2ccccc2F)nc1` [Compound 24, N-(5-(5-ethyl-2-(trifluoromethyl)oxazol-4-yl)pyridin-2-yl)-2-fluorobenzamide], the IC50 (RBL-2H3 cells; [2]) is reported as under 600 nM.
In the case of `CCc1oc(C(F)(F)F)nc1-c1ccc(NC(=O)c2c(F)cccc2F)nc1` [Compound 25, N-(5-(5-ethyl-2-(trifluoromethyl)oxazol-4-yl)pyridin-2-yl)-2,6-difluorobenzamide], the IC50 (RBL-2H3 cells; [2]) is reported as under 600 nM.
Work on `Cn1nc(-c2ccccn2)cc1-c1ccc(NC(=O)c2c(F)cc(F)cc2F)s1` [Compound 27, 2,4,6-trifluoro-N-(5-(1-methyl-3-(pyridin-2-yl)-1H-pyrazol-5-yl)thiophen-2-yl)benzamide] yielded an IC50 (RBL-2H3 cells; [1]) of under 600 nM.
Compound `Cn1nc(-c2ccccn2)cc1-c1ccc(NC(=O)c2c(F)cccc2F)s1` [Compound 28, 2,6-difluoro-N-(5-(1-methyl-3-(pyridin-2-yl)-1H-pyrazol-5-yl)thiophen-2-yl)benzamide] has an IC50 (RBL-2H3 cells; [1]) of under 600 nM.

— patent US20170044152A1, “COMPOUNDS THAT MODULATE INTRACELLULAR CALCIUM” (CalciMedica, Inc., priority 2012, published 2017)
